Measurements: PubChem BioAssay (NCI)
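Where inhibition never reached the appropriate level, the endpoint shown equals the highest concentration tested. Otherwise, values were interpolated linearly from a five-concentration, 48-hour dose response in 96-well plates. Here, GI50 denotes the concentration required for 50% inhibition of growth. The concentration for full growth arrest is given as TGI.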

Columns and labels:
Assay in all cases: growth of human tumour cells (NCI), 48 h
786-0 renal = system: 786-0 renal
A498 renal = system: A498 renal
A549 NSCLC = system: A549 NSCLC
ACHN renal = system: ACHN renal
BT-549 breast = system: BT-549 breast
CAKI-1 renal = system: CAKI-1 renal
CCRF-CEM leukemia = system: CCRF-CEM leukemia
COLO 205 colon = system: COLO 205 colon
DU-145 prostate = system: DU-145 prostate
EKVX NSCLC = system: EKVX NSCLC
HCC-2998 colon = system: HCC-2998 colon
HCT-116 colon = system: HCT-116 colon
HCT-15 colon = system: HCT-15 colon
HL-60(TB) leukemia = system: HL-60(TB) leukemia
HOP-62 NSCLC = system: HOP-62 NSCLC
HOP-92 NSCLC = system: HOP-92 NSCLC
HS 578T breast = system: HS 578T breast
HT29 colon = system: HT29 colon
IGROV1 ovarian = system: IGROV1 ovarian
K-562 leukemia = system: K-562 leukemia
KM12 colon = system: KM12 colon
LOX IMVI melanoma = system: LOX IMVI melanoma
M14 melanoma = system: M14 melanoma
MALME-3M melanoma = system: MALME-3M melanoma
MCF7 breast = system: MCF7 breast
MDA-MB-231 breast = system: MDA-MB-231 breast
MDA-MB-435 = system: MDA-MB-435
MOLT-4 leukemia = system: MOLT-4 leukemia
NCI-H226 lung = system: NCI-H226 lung
NCI-H460 lung = system: NCI-H460 lung
NCI-H522 lung = system: NCI-H522 lung
NCI/ADR-RES ovarian = system: NCI/ADR-RES ovarian
OVCAR-3 ovarian = system: OVCAR-3 ovarian
OVCAR-4 ovarian = system: OVCAR-4 ovarian
OVCAR-5 ovarian = system: OVCAR-5 ovarian
OVCAR-8 ovarian = system: OVCAR-8 ovarian
PC-3 prostate = system: PC-3 prostate
RPMI-8226 leukemia = system: RPMI-8226 leukemia
RXF 393 renal = system: RXF 393 renal
SF-268 CNS = system: SF-268 CNS
SF-295 CNS = system: SF-295 CNS
SF-539 CNS = system: SF-539 CNS
SK-MEL-2 melanoma = system: SK-MEL-2 melanoma
SK-MEL-28 melanoma = system: SK-MEL-28 melanoma
SK-MEL-5 melanoma = system: SK-MEL-5 melanoma
SK-OV-3 ovarian = system: SK-OV-3 ovarian
SN12C renal = system: SN12C renal
SNB-19 CNS = system: SNB-19 CNS
SNB-75 CNS = system: SNB-75 CNS
SR leukemia = system: SR leukemia
SW-620 colon = system: SW-620 colon
T-47D breast = system: T-47D breast
TK-10 renal = system: TK-10 renal
U251 CNS = system: U251 CNS
UACC-257 melanoma = system: UACC-257 melanoma
UACC-62 melanoma = system: UACC-62 melanoma
UO-31 renal = system: UO-31 renal

O=C(CSc1nc2sc3c(c2c(=O)n1-c1ccc(Cl)cc1)CCCC3)NNC(=O)Nc1ccc(Cl)c(C(F)(F)F)c1
GI50 (786-0 renal): 4.23 µM
TGI (786-0 renal): 16 µM
GI50 (A498 renal): 2.58 µM
TGI (A498 renal): 8.61 µM
GI50 (A549 NSCLC): 3.3 µM
TGI (A549 NSCLC): 15.7 µM
GI50 (ACHN renal): 3.56 µM
TGI (ACHN renal): 16.9 µM
GI50 (BT-549 breast): 3.5 µM
TGI (BT-549 breast): 14.4 µM
GI50 (CAKI-1 renal): 1.99 µM
TGI (CAKI-1 renal): 6.17 µM
GI50 (CCRF-CEM leukemia): 3.65 µM
TGI (CCRF-CEM leukemia): > 100 µM
GI50 (COLO 205 colon): 2.05 µM
TGI (COLO 205 colon): 4.7 µM
GI50 (DU-145 prostate): 3.86 µM
TGI (DU-145 prostate): > 100 µM
GI50 (EKVX NSCLC): 2.68 µM
TGI (EKVX NSCLC): 8.85 µM
GI50 (HCC-2998 colon): 3.04 µM
TGI (HCC-2998 colon): 9.42 µM
GI50 (HCT-116 colon): 1.87 µM
TGI (HCT-116 colon): 3.99 µM
GI50 (HCT-15 colon): 3.59 µM
TGI (HCT-15 colon): 18.6 µM
GI50 (HL-60(TB) leukemia): 3.18 µM
TGI (HL-60(TB) leukemia): 17.7 µM
GI50 (HOP-62 NSCLC): 4.3 µM
TGI (HOP-62 NSCLC): 19.1 µM
GI50 (HOP-92 NSCLC): 1.44 µM
TGI (HOP-92 NSCLC): 3.97 µM
GI50 (HS 578T breast): 6.93 µM
TGI (HS 578T breast): 73.1 µM
GI50 (HT29 colon): 3.05 µM
TGI (HT29 colon): 9.54 µM
GI50 (IGROV1 ovarian): 4.71 µM
TGI (IGROV1 ovarian): 91.7 µM
GI50 (K-562 leukemia): 2.51 µM
TGI (K-562 leukemia): > 100 µM
GI50 (KM12 colon): 3.75 µM
TGI (KM12 colon): > 100 µM
GI50 (LOX IMVI melanoma): 1.76 µM
TGI (LOX IMVI melanoma): 3.49 µM
GI50 (M14 melanoma): 3.42 µM
TGI (M14 melanoma): 14.1 µM
GI50 (MALME-3M melanoma): 2.45 µM
TGI (MALME-3M melanoma): 6.82 µM
GI50 (MCF7 breast): 2.77 µM
TGI (MCF7 breast): 17.6 µM
GI50 (MDA-MB-231 breast): 4.45 µM
TGI (MDA-MB-231 breast): 20.5 µM
GI50 (MDA-MB-435): 3.67 µM
TGI (MDA-MB-435): 14.6 µM
GI50 (MOLT-4 leukemia): 2.74 µM
TGI (MOLT-4 leukemia): 14.1 µM
GI50 (NCI-H226 lung): 2.89 µM
TGI (NCI-H226 lung): 11.3 µM
GI50 (NCI-H460 lung): 3.16 µM
TGI (NCI-H460 lung): 10.9 µM
GI50 (NCI-H522 lung): 1.96 µM
TGI (NCI-H522 lung): 6.05 µM
GI50 (NCI/ADR-RES ovarian): 6.57 µM
TGI (NCI/ADR-RES ovarian): 97.3 µM
GI50 (OVCAR-3 ovarian): 2.95 µM
TGI (OVCAR-3 ovarian): 10.6 µM
GI50 (OVCAR-4 ovarian): 1.92 µM
TGI (OVCAR-4 ovarian): 4.31 µM
GI50 (OVCAR-5 ovarian): 4.4 µM
TGI (OVCAR-5 ovarian): 19.7 µM
GI50 (OVCAR-8 ovarian): 3.12 µM
TGI (OVCAR-8 ovarian): 11.9 µM
GI50 (PC-3 prostate): 2.05 µM
TGI (PC-3 prostate): 6.62 µM
GI50 (RPMI-8226 leukemia): 2.99 µM
TGI (RPMI-8226 leukemia): 17.9 µM
GI50 (RXF 393 renal): 2.58 µM
TGI (RXF 393 renal): 9.32 µM
GI50 (SF-268 CNS): 6.21 µM
TGI (SF-268 CNS): > 100 µM
GI50 (SF-295 CNS): 3.11 µM
TGI (SF-295 CNS): 8.87 µM
GI50 (SF-539 CNS): 6.53 µM
TGI (SF-539 CNS): 21.2 µM
GI50 (SK-MEL-2 melanoma): 2.46 µM
TGI (SK-MEL-2 melanoma): 7.24 µM
GI50 (SK-MEL-28 melanoma): 4.48 µM
TGI (SK-MEL-28 melanoma): 17.3 µM
GI50 (SK-MEL-5 melanoma): 4.06 µM
TGI (SK-MEL-5 melanoma): 14.7 µM
GI50 (SK-OV-3 ovarian): 4.66 µM
TGI (SK-OV-3 ovarian): 20.4 µM
GI50 (SN12C renal): 3.3 µM
TGI (SN12C renal): 12.9 µM
GI50 (SNB-19 CNS): 4.08 µM
TGI (SNB-19 CNS): > 100 µM
GI50 (SNB-75 CNS): 2.01 µM
TGI (SNB-75 CNS): 7.88 µM
GI50 (SR leukemia): 3.3 µM
TGI (SR leukemia): 46.1 µM
GI50 (SW-620 colon): 3.16 µM
TGI (SW-620 colon): 13.2 µM
GI50 (T-47D breast): 1.83 µM
TGI (T-47D breast): 4.2 µM
GI50 (TK-10 renal): 4.3 µM
TGI (TK-10 renal): 23.6 µM
GI50 (U251 CNS): 2.93 µM
TGI (U251 CNS): 10.9 µM
GI50 (UACC-257 melanoma): 2.94 µM
TGI (UACC-257 melanoma): 12.6 µM
GI50 (UACC-62 melanoma): 2.5 µM
TGI (UACC-62 melanoma): 10 µM
GI50 (UO-31 renal): 2.85 µM
TGI (UO-31 renal): 29.5 µM
